From patent US20240398828A1, “HETERO-ATOM CONTAINING COMPOUNDS AND USES THEREOF” (Kumquat Biosciences Inc., priority 2021, published 2024)

Key:
PTPN2 (i.e., TC-PTP) = molecular target: T1, PTPN2 (i.e., TC-PTP) (Homo sapiens, UniProt P17706); assay: Phosphatase activity assay (DiFMUP substrate), PTPN2; format: biochemical; conditions: compounds binned ≤1 uM or >1 uM
T1 sequence (P17706 1-415): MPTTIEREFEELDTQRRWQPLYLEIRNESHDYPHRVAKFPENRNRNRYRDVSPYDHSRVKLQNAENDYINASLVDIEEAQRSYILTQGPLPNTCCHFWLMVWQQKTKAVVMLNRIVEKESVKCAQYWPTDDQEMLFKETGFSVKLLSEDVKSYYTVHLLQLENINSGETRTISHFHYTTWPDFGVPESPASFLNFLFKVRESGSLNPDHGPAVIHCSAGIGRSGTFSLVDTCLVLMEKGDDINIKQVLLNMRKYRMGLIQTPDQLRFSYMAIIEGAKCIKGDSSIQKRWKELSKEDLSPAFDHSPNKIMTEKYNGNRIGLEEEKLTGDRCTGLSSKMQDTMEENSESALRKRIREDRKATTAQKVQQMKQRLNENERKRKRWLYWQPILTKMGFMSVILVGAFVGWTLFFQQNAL
Description: (§1) The selectivity and potency of a small molecule PTPN2 inhibitor as provided herein against one or more protein tyrosine phosphatase (PTP) enzymes, and specifically against PTPN2, is assessed in various ways. The one or more PTP enzymes comprise Mycobacterium protein tyrosine phosphatase A (mPTPA), Mycobacterium protein tyrosine phosphatase B (mPTPB), PTPN1 (i.e., PTP1B), PTPN2 (i.e., TC-PTP), PTPN22 (i.e., LYP), SHP-1, SHP-2, FAP-1, Meg2, HePTP, Laforin, VHX, VHR, LMWPTP, Cdc14A, LAR, CD45, PTPRG, a fragment thereof, a variant thereof, and a combination thereof. Selectivity and potency of a small molecule PTPN2 inhibitor is evaluated using a PTP activity inhibition assay. The assay is performed using a buffer comprising 50 mM HEPES buffer pH 7.5, 150 mM NaCl, 0.5 mM EDTA, 1 mM DTT, 0.001% Tween-20.
(§2) The assay is performed using a phosphated substrate, e.g., 10 mM 6,8-Difluoro-4-Methylumbelliferyl Phosphate (DIFMUP) that is stored at −20° C. Alternatively or in addition to, the assay is performed using other phosphated substrate (e.g., fluorescein diphosphate). Each PTP enzyme is diluted in the assay buffer
(§3) The assay can be carried out at room temperature in multiplate format, e.g., using 384 well plates. A small molecule PTPN2 inhibitor dissolved in DMSO at one of 10 concentrations from a serial dilution or DMSO alone for control is added to each well. A mixture of the assay buffer comprising PTP enzyme (e.g., 0.025 ng/ul PTPN2) is added to each well and mixed for approximately 2 minutes. The reaction is initiated by adding DiFMUP diluted in the assay buffer to a final concentration of approximately 45 μM DiFMUP in PTPN2 assay. For each PTP enzyme, DiFMUP is added at the Km (Michaelis constant) of the enzyme that had been independently determined. The phosphatase activity of the PTP enzyme is assessed by monitoring appearance of a fluorescent product (6,8-difluoro-7-hydroxyl-4-coumarin (DiFMU) from DiFMUP) continuously for about 15 to 30 minutes, using the INFINITE M1000Pro plate reader (Tecan) with excitation at 360 nm and emission at 450 nm (cutoff filter at 435 nm) for DiFMU. Each assay is performed at least in duplicate. The rate (e.g., the initial rate) of DiFMU formation is plotted against the concentration of the small molecule PTPN2 inhibitor, and the data is fitted (e.g., using a 4-parameter equation) to determine the inflection point of the fit as the IC50 of the small molecule PTPN2 inhibitor for a specific enzyme. Utilizing this assay, the ability of the compounds in Table 2 to inhibit PTPN2 and PTP1B has been assessed. Table 3 summarizes the IC50 values.

PTPN1 (i.e., PTP1B) = molecular target: T2, PTPN1 (i.e., PTP1B) (Homo sapiens, UniProt P18031); assay: Phosphatase activity assay (DiFMUP substrate), PTP1B; format: biochemical; conditions: compounds binned ≤1 uM or >1 uM
T2 sequence (P18031 1-435): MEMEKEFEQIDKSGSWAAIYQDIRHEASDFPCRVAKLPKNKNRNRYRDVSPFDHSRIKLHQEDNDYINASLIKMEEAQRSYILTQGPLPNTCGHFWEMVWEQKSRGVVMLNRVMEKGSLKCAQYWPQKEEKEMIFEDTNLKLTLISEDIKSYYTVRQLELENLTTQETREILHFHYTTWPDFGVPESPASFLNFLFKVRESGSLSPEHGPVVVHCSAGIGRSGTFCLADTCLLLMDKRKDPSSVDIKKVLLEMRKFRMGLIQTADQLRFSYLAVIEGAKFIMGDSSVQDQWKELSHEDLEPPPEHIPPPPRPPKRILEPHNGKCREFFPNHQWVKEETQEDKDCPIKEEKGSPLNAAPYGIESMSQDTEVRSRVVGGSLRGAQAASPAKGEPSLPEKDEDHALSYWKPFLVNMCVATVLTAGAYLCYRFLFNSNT
Description: as §1, §2, §3

IC50 (PTPN2 (i.e., TC-PTP))	IC50 (PTPN1 (i.e., PTP1B))	SMILES
≤ 1000 nM	≤ 1000 nM	O=C1CN(c2c(O)ccc(-c3cnn(C4CCCC4)c3)c2F)S(=O)(=O)N1 [Compound 123, 5-(3-(1-cyclopentyl-1H-pyrazol-4-yl)-2-fluoro-6-hydroxyphenyl)-1,2,5-thiadiazolidin-3-one 1,1-dioxide]
≤ 1000 nM	≤ 1000 nM	CC(C)CCn1ccc(-c2ccc(O)c(N3CC(=O)NS3(=O)=O)c2F)c1 [Compound 125, 5-(2-fluoro-6-hydroxy-3-(1-isopentyl-1H-pyrrol-3-yl)phenyl)-1,2,5-thiadiazolidin-3-one 1,1-dioxide]
≤ 1000 nM	≤ 1000 nM	Cc1ccc(-c2ccc(O)c(N3CC(=O)NS3(=O)=O)c2F)o1 [Compound 126, 5-(2-fluoro-6-hydroxy-3-(5-methylfuran-2-yl)phenyl)-1,2,5-thiadiazolidin-3-one 1,1-dioxide]
≤ 1000 nM	≤ 1000 nM	Cc1ccc(-c2ccc(O)c(N3CC(=O)NS3(=O)=O)c2F)s1 [Compound 128, 5-(2-fluoro-6-hydroxy-3-(5-methylthiophen-2-yl)phenyl)-1,2,5-thiadiazolidin-3-one 1,1-dioxide]
≤ 1000 nM	≤ 1000 nM	O=C1CN(c2c(O)ccc(-c3cc[nH]c3)c2F)S(=O)(=O)N1 [Compound 129, 5-(2-fluoro-6-hydroxy-3-(1H-pyrrol-3-yl)phenyl)-1,2,5-thiadiazolidin-3-one 1,1-dioxide]
≤ 1000 nM	≤ 1000 nM	N#CCn1cc(-c2ccc(O)c(N3CC(=O)NS3(=O)=O)c2F)cn1 [Compound 130, 2-(4-(3-(1,1-dioxido-4-oxo-1,2,5-thiadiazolidin-2-yl)-2-fluoro-4-hydroxyphenyl)-1H-pyrazol-1-yl)acetonitrile]
> 1000 nM	≤ 1000 nM	O=C1CN(c2c(O)ccc(-c3ccnc(-c4ccccc4)c3)c2F)S(=O)(=O)N1 [Compound 136, 5-(2-fluoro-6-hydroxy-3-(2-phenylpyridin-4-yl)phenyl)-1,2,5-thiadiazolidin-3-one 1,1-dioxide]
≤ 1000 nM	≤ 1000 nM	CC(C)CNc1cccc(-c2ccc(O)c(N3CC(=O)NS3(=O)=O)c2F)c1 [Compound 137, 5-(2-fluoro-4-hydroxy-3′-(isobutylamino)-[1,1′-biphenyl]-3-yl)-1,2,5-thiadiazolidin-3-one 1,1-dioxide]
≤ 1000 nM	≤ 1000 nM	O=C1CN(c2c(O)ccc(-c3ccc4cccnc4c3)c2F)S(=O)(=O)N1 [Compound 138, 5-(2-fluoro-6-hydroxy-3-(quinolin-7-yl)phenyl)-1,2,5-thiadiazolidin-3-one 1,1-dioxide]
> 1000 nM	> 1000 nM	Cc1cc(-c2cnn(CCC(C)C)c2)cc(N2CC(=O)NS2(=O)=O)c1O [Compound 145, 5-(2-hydroxy-5-(1-isopentyl-1H-pyrazol-4-yl)-3-methylphenyl)-1,2,5-thiadiazolidin-3-one 1,1-dioxide]
≤ 1000 nM	≤ 1000 nM	O=C1CN(c2c(O)ccc(-c3cnn(-c4ccccc4)c3)c2F)S(=O)(=O)N1 [Compound 147, 5-(2-fluoro-6-hydroxy-3-(1-phenyl-1H-pyrazol-4-yl)phenyl)-1,2,5-thiadiazolidin-3-one 1,1-dioxide]

The next lines start with the compound.

SMILES	IC50 (PTPN2 (i.e., TC-PTP))	IC50 (PTPN1 (i.e., PTP1B))
O=C1CN(c2c(O)ccc(-c3cc(-c4ccccc4)n[nH]3)c2F)S(=O)(=O)N1 [Compound 124, 5-(2-fluoro-6-hydroxy-3-(3-phenyl-1H-pyrazol-5-yl)phenyl)-1,2,5-thiadiazolidin-3-one 1,1-dioxide]	≤ 1000 nM	≤ 1000 nM
COc1cccc(Cn2cc(-c3ccc(O)c(N4CC(=O)NS4(=O)=O)c3F)cn2)c1 [Compound 127, 5-(2-fluoro-6-hydroxy-3-(1-(3-methoxybenzyl)-1H-pyrazol-4-yl)phenyl)-1,2,5-thiadiazolidin-3-one 1,1-dioxide]	≤ 1000 nM	≤ 1000 nM
O=C1CN(c2c(O)ccc(-c3cnn(CC4CC4)c3)c2F)S(=O)(=O)N1 [Compound 131, 5-(3-(1-(cyclopropylmethyl)-1H-pyrazol-4-yl)-2-fluoro-6-hydroxyphenyl)-1,2,5-thiadiazolidin-3-one 1,1-dioxide]	≤ 1000 nM	≤ 1000 nM
CC(C)CCn1cc(-c2ccc(O)c(N3CC(=O)NS3(=O)=O)c2)cn1 [Compound 132, 5-(2-hydroxy-5-(1-isopentyl-1H-pyrazol-4-yl)phenyl)-1,2,5-thiadiazolidin-3-one 1,1-dioxide]	≤ 1000 nM	≤ 1000 nM
O=C1CN(c2c(O)ccc(-c3cnn(C4CC4)c3)c2F)S(=O)(=O)N1 [Compound 133, 5-(3-(1-cyclopropyl-1H-pyrazol-4-yl)-2-fluoro-6-hydroxyphenyl)-1,2,5-thiadiazolidin-3-one 1,1-dioxide]	≤ 1000 nM	≤ 1000 nM
CC(C)CCn1cc(-c2ccc(O)c(N3CC(=O)NS3(=O)=O)n2)cn1 [Compound 134, 5-(3-hydroxy-6-(1-isopentyl-1H-pyrazol-4-yl)pyridin-2-yl)-1,2,5-thiadiazolidin-3-one 1,1-dioxide]	> 1000 nM	> 1000 nM
Nc1nc2ccc(-c3ccc(O)c(N4CC(=O)NS4(=O)=O)c3F)cc2s1 [Compound 135, 5-(3-(2-aminobenzo[d]thiazol-6-yl)-2-fluoro-6-hydroxyphenyl)-1,2,5-thiadiazolidin-3-one 1,1-dioxide]	≤ 1000 nM	≤ 1000 nM
Cc1ncc(-c2ccc(O)c(N3CC(=O)NS3(=O)=O)c2F)cn1 [Compound 139, 5-(2-fluoro-6-hydroxy-3-(2-methylpyrimidin-5-yl)phenyl)-1,2,5-thiadiazolidin-3-one 1,1-dioxide]	≤ 1000 nM	≤ 1000 nM
O=C1CN(c2c(O)ccc(-c3cnn(CCO)c3)c2F)S(=O)(=O)N1 [Compound 140, 5-(2-fluoro-6-hydroxy-3-(1-(2-hydroxyethyl)-1H-pyrazol-4-yl)phenyl)-1,2,5-thiadiazolidin-3-one 1,1-dioxide]	≤ 1000 nM	≤ 1000 nM
Cc1nn(C)cc1-c1ccc(O)c(N2CC(=O)NS2(=O)=O)c1F [Compound 142, 5-(3-(1,3-dimethyl-1H-pyrazol-4-yl)-2-fluoro-6-hydroxyphenyl)-1,2,5-thiadiazolidin-3-one 1,1-dioxide]	≤ 1000 nM	≤ 1000 nM
O=C1CN(c2c(O)ccc(-c3ccc(OCc4ccccc4)nc3)c2F)S(=O)(=O)N1 [Compound 143, 5-(3-(6-(benzyloxy)pyridin-3-yl)-2-fluoro-6-hydroxyphenyl)-1,2,5-thiadiazolidin-3-one 1,1-dioxide]	≤ 1000 nM	≤ 1000 nM
N#Cc1ccc(-c2ccc(O)c(N3CC(=O)NS3(=O)=O)c2F)cn1 [Compound 144, 5-(3-(1,1-dioxido-4-oxo-1,2,5-thiadiazolidin-2-yl)-2-fluoro-4-hydroxyphenyl)picolinonitrile]	≤ 1000 nM	≤ 1000 nM
